From US10759796B2, “CXCR4 inhibitors and uses thereof” (X4 Pharmaceuticals, Inc., priority 2016, dated 2020)

Key:
[1] = in vitro; conditions: human, Caco-2, pH 7.4
Description: Example 28: Caco-2 Permeability Assay
The goal of this assay was to evaluate the intestinal absorption potential of drug candidates using Caco-2 cell lines.
1. Prewarm Prewarm HBSS Buffer in 37° C. water bath
2. Sonicate Take compounds from −20° C., sonicate for a few minutes (no less than 1 minute)
HBSS buffer with 0.3% DMSO and 5 μM LY: add 150 μL DMSO and 50 μL LY (5 mM) into 50 ml HBSS buffer (pH 7.4).
HBSS buffer with 0.1% DMSO and 5 μM LY: add 50 μL DMSO and 50 μL LY (5 mM) into 50 mL HBSS buffer (pH 7.4).
HBSS buffer with 0.3% DMSO: add 150 μL DMSO into 50 ml HBSS buffer (pH 7.4).
HBSS buffer with 0.1% DMSO: add 50 μL DMSO into 50 ml HBSS buffer (pH 7.4).
Receiver Solution Buffer:
Prepare HBSS buffer with 0.4% DMSO: add 200 μL DMSO into 50 ml HBSS buffer (pH 7.4).
Prepare HBSS buffer with 0.4% DMSO and 5 μM LY: add 200 μL DMSO and 50 μL LY (5 mM) into 50 ml HBSS buffer (pH 7.4).
4. Measure TEER Take cell culture plate out of incubator, wash the cell monolayers with HBSS buffer, and then measure TEER values at Rm temperature. 5. Centrifuge Centrifuge the compound solution (from step 3) at 4000 rpm for 5 min before loading to donor chambers. 6. Dosing Add solution based on the volumes listed in the following table (make sure to take extra 100 μL of donor sample for TO as Backup).
7. Apical LYT0 Samples To determine LY concentration in the apical chember, take 100 μL sample from apical chambers into an opaque plate for LYT0. 8. Prewarm Prewarm apical and basolateral plates at 37° C. for about 5 min, then begin transport by placing the apical plate onto basolateral plate. 9. Incubation Keep the plates in incubator at 37° C. for 90 min. 10. Standard Curve Preparation
For 300 μM compound solution, add 6 μL of compound stock solution into 192 μL of MeOH/H2O (1:1).
Prepare Working Solution in MeOH/H2O (1:1)
3 μL (20×)+57 μL of 0.4% DMSO HBSS+60 μL ACN with IS (Osalmid or Imipramine) - - - 120 μL (1×)
11. Transport Termination Separate the apical plate from the basolateral plate after 90-min incubation.
12. Measure LY Take 100 μL samples from basolateral plate to an opaque plate as LYT90.
13. Measure LY concentrations for LYT0 and LYT90 by Fluorometer (at excitation of 485 nm/emission of 535 nm).
Study details: Test concentration 10 μM
Test systems: Caco-2/HBSS solution
Incubation conditions: 0, 90 min at 37° C.
Sample size: Duplicates (n=2)
Bioanalytical method: LC-MS/MS
For Millicell-24 Cell Culture Plates: surface area of the membrane=0.7 cm^2, VA=0.8 mL (A-to-B) or 0.4 mL (B-to-A)
1. Papp values were calculated based on calculated concentrations.
The compound numbers correspond to the compound numbers in Table 1.

[2] = target: Jurkat cells expressing CXCR4 (Homo sapiens (Human), UniProt P61073); assay: Chemokine (CXCL12-AF647) binding inhibition assay; conditions: CXCL12-AF647 25 ng/mL, read-out: IC50 CXCL-12 binding Jurkat
Description: Chemokine (CXCL12-AF647) Binding Inhibition Assay
Jurkat cells expressing CXCR4 were washed once with assay buffer (Hanks' balanced salt solution with 20 mM HEPES buffer and 0.2% bovine serum albumin, pH 7.4) and then incubated for 15 min at room temperature with the test compounds diluted in assay buffer at dose-dependent concentrations. Subsequently, CXCL12-AF647 (25 ng/mL) was added to the compound-incubated cells. The cells were incubated for 30 min at room temperature. Thereafter, the cells were washed twice in assay buffer, fixed in 1% paraformaldehyde in PBS, and analyzed on the FL4 channel of a FACSCalibur flow cytometer equipped with a 635-nm red diode laser (Becton Dickinson, San Jose, Calif., USA).
The percentages of inhibition of CXCL12-AF647 binding were calculated according to the formula: [1−((MFI−MFINC)/(MFIPC−MFINC))]×100 where MFI is the mean fluorescence intensity of the cells incubated with CXCL12-AF647 in the presence of the inhibitor, MFINC is the mean fluorescence intensity measured in the negative control (i.e., autofluorescence of unlabeled cells), and MFIPC is the mean fluorescence intensity of the positive control (i.e., cells exposed to CXCL12-AF647 alone).

[3] = target: CXCR-4 transfected U87 cell line (U87.CXCR4) (Homo sapiens (Human), UniProt P61073); assay: Intracellular CXCL-12-induced calcium mobilization assay (FLIPR); type: cell-based; conditions: U87.CXCR4 cells, CXCL-12 25-50 ng/mL; read-out: IC50 CXCL-12 Ca2+ flux U87.CXCR4+
Description: Example 28: REGA Screening Assay
Intracellular CXCL-12-Induced Calcium Mobilization Assay
Intracellular calcium mobilization induced by chemokines or chemokine-derived peptides were evaluated using a calcium responsive fluorescent probe and a FLIPR system. The CXCR-4 transfected U87 cell line (U87.CXCR4) cells were seeded in gelatine-coated black-wall 96-well plates at 20,000 cells per well and incubated for 12 hours. Cells were then loaded with the fluorescent calcium probe Fluo-2 acetoxymethyl at 4 μM final concentration in assay buffer (Hanks' balanced salt solution with 20 mM HEPES buffer and 0.2% bovine serum albumin, pH 7.4) for 45 min at 37° C. The intracellular calcium mobilization induced by the CXCL-12 (25-50 ng/mL) was then measured at 37° C. by monitoring the fluorescence as a function of time in all the wells simultaneously using a fluorometric imaging plate reader (FLIPR Tetra, Molecular Devices).

Jurkat cells expressing CXCR4, sequence (P61073 whole entry): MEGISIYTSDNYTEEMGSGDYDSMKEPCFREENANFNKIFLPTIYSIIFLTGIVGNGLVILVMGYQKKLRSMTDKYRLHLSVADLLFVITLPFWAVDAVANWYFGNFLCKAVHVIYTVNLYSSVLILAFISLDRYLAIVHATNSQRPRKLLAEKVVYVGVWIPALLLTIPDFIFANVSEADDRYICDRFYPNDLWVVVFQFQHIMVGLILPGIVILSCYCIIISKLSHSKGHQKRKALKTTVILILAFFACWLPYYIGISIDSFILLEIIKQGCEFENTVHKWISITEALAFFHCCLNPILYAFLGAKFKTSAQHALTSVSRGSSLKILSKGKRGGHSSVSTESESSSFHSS
CXCR-4 transfected U87 cell line (U87.CXCR4), sequence (P61073 whole entry): as above

Row | Compound | Papp A→B at 90 min, 10 μM [1] | Papp B→A at 90 min, 10 μM [1] | efflux ratio at 90 min, 10 μM [1] | IC50 [2] | IC50 [3]
1 | Cc1cccnc1[C@@H]1CCC[C@H](c2nc3cccc(N4CCN(C(C)C)CC4)n3c2CO)N1C [Compound I-50] | 0.1 to 10 ×10⁻⁶ cm/s | 10 to 30 ×10⁻⁶ cm/s | 10 to 30 | 0.01 to 100 nM | 0.01 to 100 nM
2 | CC(C)c1cccnc1[C@@H]1CCC[C@H](c2cn3c(N4CCN(C)CC4)cccc3n2)N1C [Compound I-51] | 0.1 to 10 ×10⁻⁶ cm/s | 10 to 30 ×10⁻⁶ cm/s | 0.1 to 10 | 0.01 to 100 nM | 100 to 1000 nM
3 | Cc1cccnc1[C@@H]1CCC[C@H](c2cn3c(N4CCN(C5COC5)CC4)cccc3n2)N1C [Compound I-52] | 0.1 to 10 ×10⁻⁶ cm/s | > 30 ×10⁻⁶ cm/s | 10 to 30 | 100 to 1000 nM | ≥ 1000 nM
4 | Cc1cccnc1[C@@H]1CCC[C@H](c2cn3c(N4CCN(C5CCOCC5)CC4)cccc3n2)N1C [Compound I-53] | 0.1 to 10 ×10⁻⁶ cm/s | 10 to 30 ×10⁻⁶ cm/s | 0.1 to 10 | 0.01 to 100 nM | 100 to 1000 nM
5 | Cc1cccnc1[C@@H]1CCC[C@H](c2nc3ccccn3c2[C@@H](O)C2CCN(C)CC2)N1C [Compound I-54] | 0.1 to 10 ×10⁻⁶ cm/s | 0.1 to 10 ×10⁻⁶ cm/s | > 30 | 0.01 to 100 nM | 0.01 to 100 nM
6 | Cc1cccnc1[C@@H]1CCC[C@H](c2nc3ccccn3c2[C@H](O)C2CCN(C)CC2)N1C [Compound I-55] | 0.1 to 10 ×10⁻⁶ cm/s | 0.1 to 10 ×10⁻⁶ cm/s | 0.1 to 10 | 0.01 to 100 nM | ≥ 1000 nM
7 | CCOCc1c([C@H]2CCC[C@@H](c3ncccc3C)N2C)nc2cccc(N3CCN(CC)CC3)n12 [Compound I-56] | 0.1 to 10 ×10⁻⁶ cm/s | 10 to 30 ×10⁻⁶ cm/s | 0.1 to 10 | 0.01 to 100 nM | 0.01 to 100 nM
8 | CCOCc1c([C@H]2CCC[C@@H](c3ncccc3C)N2C)nc2cccc(N3CCN(C(C)C)CC3)n12 [Compound I-57] | 0.1 to 10 ×10⁻⁶ cm/s | 10 to 30 ×10⁻⁶ cm/s | 0.1 to 10 | 0.01 to 100 nM | 0.01 to 100 nM
9 | CCOCc1c([C@H]2CCC[C@@H](c3ncccc3C)N2C)nc2cccc(N3CCN(C4CC4)CC3)n12 [Compound I-58] | 10 to 30 ×10⁻⁶ cm/s | 10 to 30 ×10⁻⁶ cm/s | 0.1 to 10 | 100 to 1000 nM | ≥ 1000 nM
10 | CCN1CCN(c2cccc3nc([C@H]4CCC[C@@H](c5ncccc5C)N4C)c(COC(C)C)n23)CC1 [Compound I-60] | 0.1 to 10 ×10⁻⁶ cm/s | 10 to 30 ×10⁻⁶ cm/s | 0.1 to 10 | 0.01 to 100 nM | 0.01 to 100 nM
11 | CCN1CCN(c2cccc3nc([C@H]4CCC[C@@H](c5ncccc5C)N4C)c(CO)n23)CC1 [Compound I-61] | 0.1 to 10 ×10⁻⁶ cm/s | 10 to 30 ×10⁻⁶ cm/s | 0.1 to 10 | 0.01 to 100 nM | 0.01 to 100 nM
12 | Cc1cccnc1[C@@H]1CCC[C@H](c2nc3ccccn3c2COC2CCN(C)CC2)N1C [Compound I-62] | 0.1 to 10 ×10⁻⁶ cm/s | 10 to 30 ×10⁻⁶ cm/s | > 30 | 100 to 1000 nM | ≥ 1000 nM
13 | Cc1cccnc1[C@@H]1CCC[C@H](c2nc3ccccn3c2COC2CCCN(C)C2)N1C (some centres unmarked) [Compound I-63] | 0.1 to 10 ×10⁻⁶ cm/s | 10 to 30 ×10⁻⁶ cm/s | 10 to 30 | 0.01 to 100 nM | 100 to 1000 nM
14 | Cc1cccnc1[C@@H]1CCC[C@H](c2cn3c(N4CCN(C5CC5)CC4)cccc3n2)N1C [Compound I-66] | 10 to 30 ×10⁻⁶ cm/s | 10 to 30 ×10⁻⁶ cm/s | 0.1 to 10 | 0.01 to 100 nM | 100 to 1000 nM
15 | Cc1cccnc1[C@@H]1CCC[C@H](c2nc3cccc(N4CCN(C5CC5)CC4)n3c2Br)N1C [Compound I-67] | 0.1 to 10 ×10⁻⁶ cm/s | 0.1 to 10 ×10⁻⁶ cm/s | 0.1 to 10 | 0.01 to 100 nM | 100 to 1000 nM
16 | Cc1cccnc1[C@@H]1CCC[C@H](c2cn3c(N4CC5CCC(C4)N5C)cccc3n2)N1C [Compound I-68] | 0.1 to 10 ×10⁻⁶ cm/s | 10 to 30 ×10⁻⁶ cm/s | 10 to 30 | 0.01 to 100 nM | 0.01 to 100 nM
17 | Cc1cccnc1[C@@H]1CCC[C@H](c2cn3c(N4C5CCC4CN(C)C5)cccc3n2)N1C [Compound I-69] | 0.1 to 10 ×10⁻⁶ cm/s | 10 to 30 ×10⁻⁶ cm/s | 0.1 to 10 | 0.01 to 100 nM | 0.01 to 100 nM
18 | Cc1cccnc1[C@@H]1CCC[C@H](c2nc3ccccn3c2CN2CCOCC2)N1C [Compound I-73] | 10 to 30 ×10⁻⁶ cm/s | 10 to 30 ×10⁻⁶ cm/s | 0.1 to 10 | 100 to 1000 nM | ≥ 1000 nM
19 | CCN1CCN(c2cccc3nc([C@H]4CCC[C@@H](c5ncccc5C(C)C)N4C)c(CO)n23)CC1 [Compound I-75] | 0.1 to 10 ×10⁻⁶ cm/s | 10 to 30 ×10⁻⁶ cm/s | 0.1 to 10 | 100 to 1000 nM | ≥ 1000 nM
